Like-named read-outs stand apart in the source and are kept apart here.
System: WT P. aeruginosa PAO1
Experiment: Checkerboard combination study / MIC
Format: cell-based, Pseudomonas aeruginosa
Conditions: for MIC: Pseudomonas aeruginosa; for FICI in the presence of ≤10 μM of 1: antibiotic + compound 1; for MIC of Antibiotics in the presence of ≤10 μM of 1: antibiotic + compound 1 ≤10 μM; for FICI in the presence of ≤10 μM of 2: antibiotic + compound 2; for MIC of Antibiotics in the presence of ≤10 μM of 2: antibiotic + compound 2 ≤10 μM; for FICI in the presence of ≤10 μM of 3: antibiotic + compound 3; for MIC of Antibiotics in the presence of ≤10 μM of 3: antibiotic + compound 3 ≤10 μM
[1] = PAO1, 18 h, antibiotic alone, WT PAO1 (Table 2), read-out: MIC alone

SMILES | MIC of Antibiotics in the presence of ≤10 μM of 1 (WT PAO1) [µg/mL] | MIC of Antibiotics in the presence of ≤10 μM of 2 (WT PAO1) [µg/mL] | MIC of Antibiotics in the presence of ≤10 μM of 3 (WT PAO1) [µg/mL] | MIC [1] [µg/mL] | MIC (PAO1, 18 h, read-out: MIC alone) [µg/mL] | FICI in the presence of ≤10 μM of 1 (WT PAO1) | FICI in the presence of ≤10 μM of 2 (WT PAO1) | FICI in the presence of ≤10 μM of 3 (WT PAO1) | MIC (PAO1, read-out: MIC alone) [µg/mL] | FICI with compounds 1-3 (antibiotic + compounds 1-3 at ≤10 μM (≤16 μg/mL), WT PAO1)
CN[C@H](CC(C)C)C(=O)N[C@H]1C(=O)N[C@@H](CC(N)=O)C(=O)N[C@H]2C(=O)N[C@H]3C(=O)N[C@H](C(=O)N[C@H](C(=O)O)c4cc(O)cc(O)c4-c4cc3ccc4O)[C@H](O)c3ccc(c(Cl)c3)Oc3cc2cc(c3O[C@@H]2O[C@H](CO)[C@@H](O)[C@H](O)[C@H]2O[C@H]2C[C@](C)(N)[C@H](O)[C@H](C)O2)Oc2ccc(cc2Cl)[C@H]1O [Vancomycin] | 128 | 64 | 128 |  | 256 | 0.50 | 0.26 | 0.50 |  | 
CN(C)c1cc(NC(=O)CNC(C)(C)C)c(O)c2c1C[C@H]1C[C@H]3[C@H](N(C)C)C(O)=C(C(N)=O)C(=O)[C@@]3(O)C(O)=C1C2=O [Tigecycline] | 2 | 2 | 2 |  |  | 0.25 | 0.50 | 0.52 | 4 | 
C=C[C@]1(C)C[C@@H](OC(=O)CO)[C@]2(C)[C@H](C)CC[C@]3(CCC(=O)[C@H]32)[C@@H](C)[C@@H]1O [Pleuromutilin] | 512 | 512 | 128 | 512 |  | 1.00 | 1.00 | 0.25 |  | 
COc1cc(Cc2cnc(N)nc2N)cc(OC)c1OC [Trimethoprim] | 32 | 32 | 32 | 64 |  | 0.50 | 0.50 | 0.50 |  | 

Further lines, with some results ahead:

MIC of Antibiotics in the presence of ≤10 μM of 1 (WT PAO1) [µg/mL] | MIC of Antibiotics in the presence of ≤10 μM of 2 (WT PAO1) [µg/mL] | MIC of Antibiotics in the presence of ≤10 μM of 3 (WT PAO1) [µg/mL] | MIC [1] [µg/mL] | SMILES | MIC (PAO1, 18 h, read-out: MIC alone) [µg/mL] | FICI in the presence of ≤10 μM of 1 (WT PAO1) | FICI in the presence of ≤10 μM of 2 (WT PAO1) | FICI in the presence of ≤10 μM of 3 (WT PAO1) | MIC (PAO1, read-out: MIC alone) [µg/mL] | FICI with compounds 1-3 (antibiotic + compounds 1-3 at ≤10 μM (≤16 μg/mL), WT PAO1)
1024 | 256 | 256 | 1020 | CC(=O)NC[C@H]1CN(c2ccc(N3CCOCC3)c(F)c2)C(=O)O1 [Linezolid] |  | 1.00 | 0.26 | 0.25 |  | 
 |  |  | 512 | CC[C@H]1OC(=O)[C@H](C)[C@@H](O[C@H]2C[C@@](C)(OC)[C@@H](O)[C@H](C)O2)[C@H](C)[C@@H](O[C@@H]2O[C@H](C)C[C@H](N(C)C)[C@H]2O)[C@](C)(O)C[C@@H](C)C(=O)[C@H](C)[C@@H](O)[C@]1(C)O [Erythromycin] |  | 0.50 | 0.50 | 0.25 |  | 
1024 | 1024 | 1024 | 1020 | O=C1CN(/N=C/c2ccc([N+](=O)[O-])o2)C(=O)N1 [Nitrofurantoin] |  | 1.00 | 1.00 | 1.02 |  | 1
8 | 8 | 16 | 16 | C[C@@H]1O[C@@H]1P(=O)(O)O [Fosfomycin] |  | 0.51 | 0.50 | 1.02 |  | 
512 | 512 | 64 | 1020 | CCC[C@@H]1C[C@@H](C(=O)N[C@@H]([C@H]2O[C@H](SC)[C@H](O)[C@@H](O)[C@H]2O)[C@H](C)Cl)N(C)C1 [Clindamycin] |  | 0.50 | 0.51 | 0.07 |  | 
